Source: patent US7897620B2, “Methods of using anti-inflammatory compounds” (Cambridge Enterprise Limited, priority 2007, dated 2011)

Columns and labels:
[1] = test system: RANTES induced THP-1 cell migration; experiment: ChemoTx transwell migration assay, RANTES induced migration of THP-1 cells; type: cell-based; conditions: Homo sapiens, maximal dose of chemoattractant, read-out: ED50 RANTES
Procedure: In principle, this assay consists of two chambers separated by a porous membrane. The chemoattractant is placed in the lower compartment and the cells are placed in the upper compartment. After incubation for a period at 37° C. the cells move towards the chemoattractant, and the number of cells in the lower compartment is proportional to the chemoattractant activity (relative to a series of controls).
The THP-1 cell line (European Cell Culture Collection) were used as the leukocyte cell population.
First, the cell suspension to be placed in the upper compartment is prepared. The THP-1 cells are pelleted by centrifugation (770×g; 4 mins) and washed with Geys Balanced Salt Solution with 1 mg/ml BSA (GBSS+BSA). This wash is then repeated, and the cells repelleted before being resuspended in a small volume of GBSS+BSA for counting, for example using a standard haemocytometer.
The volume of GBSS+BSA is then adjusted depending on the number of cells present so that the cells are at final density of 4.45×10^6 cells per ml of GBSS+BSA. This ensures that there are […] THP-1 cells in each 25 μl of the solution that will be placed in the upper chamber of the plate.
To test a single compound for its ability to inhibit chemokine induced migration, it is necessary to prepare two lots of cells. The suspension of THP-1 cells at 4.45×10^6 cells/ml is divided into two pots. […]

[2] = Water solubility (observation); type: physicochemical

| SMILES | EC50 [1] [nM] | water solubility [2] |
| --- | --- | --- |
| O=C1NCCCC[C@@H]1NC(=O)C12CC3CC(CC(C3)C1)C2 [(II), 3-(adamantane-1-carbonylamino)-caprolactam] | 0.1 |  |
| CC(C)(C)C(=O)N[C@H]1CCCNC1=O [Compound (I′), 3-(2′,2′-dimethylpropanoylamino)-tetrahydropyridin-2-one] |  | extremely water soluble |
